Values of other authors as cited in patent US7638678B2, “Animal model for perimenopause and menopause and methods of inducing ovarian failure” (The Arizona Board of Regents, priority 2002, dated 2009).

Columns and labels:
ovarian follicles = conditions: B6C3F1 mice dosed with VCH; cited from earlier work
[1] = i.p. minipumps versus injection; cited from earlier work

Compound	Premature ovarian failure in long term studies (ovarian follicles)	Decrease of the effective dose by continuous administration [1]
C=CC1CC=CCC1 (centres unmarked) [VCH, 4-vinylcyclohexene]	premature ovarian failure occurred within a year	
endostatin		8-10 fold
